Laboratory results reported in ChEMBL document CHEMBL1130772, “New nonsteroidal androgen receptor modulators based on 4-(trifluoromethyl)-2(1H)-pyrrolidino[3,2-g] quinolinone” (Bioorg Med Chem Lett, 1998).

Experiments:
Androgen receptor [1] = target: T1, Androgen receptor (Homo sapiens, UniProt P10275)
T1 sequence (P10275 whole entry): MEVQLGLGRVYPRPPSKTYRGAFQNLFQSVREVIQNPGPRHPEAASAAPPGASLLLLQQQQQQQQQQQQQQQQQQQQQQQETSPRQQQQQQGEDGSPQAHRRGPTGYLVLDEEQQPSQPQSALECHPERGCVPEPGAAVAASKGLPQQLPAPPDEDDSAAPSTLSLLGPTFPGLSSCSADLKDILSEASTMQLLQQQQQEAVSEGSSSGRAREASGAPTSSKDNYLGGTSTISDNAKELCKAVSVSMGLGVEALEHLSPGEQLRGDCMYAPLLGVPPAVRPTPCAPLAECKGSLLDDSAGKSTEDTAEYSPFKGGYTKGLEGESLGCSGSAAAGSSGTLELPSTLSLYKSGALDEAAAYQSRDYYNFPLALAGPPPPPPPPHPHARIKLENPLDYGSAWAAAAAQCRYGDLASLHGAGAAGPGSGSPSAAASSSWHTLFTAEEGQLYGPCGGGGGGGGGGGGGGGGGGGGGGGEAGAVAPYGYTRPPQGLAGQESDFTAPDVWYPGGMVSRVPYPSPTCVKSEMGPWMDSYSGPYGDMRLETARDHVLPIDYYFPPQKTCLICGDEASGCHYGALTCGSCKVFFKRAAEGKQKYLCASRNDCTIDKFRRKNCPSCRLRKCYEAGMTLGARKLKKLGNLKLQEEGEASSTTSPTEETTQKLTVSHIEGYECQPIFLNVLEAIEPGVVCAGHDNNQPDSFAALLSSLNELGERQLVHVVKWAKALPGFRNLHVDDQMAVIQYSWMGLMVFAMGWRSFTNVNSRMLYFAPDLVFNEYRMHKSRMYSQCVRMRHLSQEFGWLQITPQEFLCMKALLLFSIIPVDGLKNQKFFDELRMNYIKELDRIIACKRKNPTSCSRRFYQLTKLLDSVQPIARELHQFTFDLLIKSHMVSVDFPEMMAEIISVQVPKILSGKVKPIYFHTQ

Androgen receptor [2] = target: T1, Androgen receptor; settings: cv-1
Description: Agonistic activity against human androgen receptor (hAR) in co-transfected CV-1 cell

Androgen receptor [3] = target: T1, Androgen receptor; assay: Binding affinity against hAR androgen receptor expressed in COS cells; format: cell-based
Androgen receptor [4] = target: T1, Androgen receptor; assay: Binding affinity against Androgen receptor transfected into COS cells
Androgen receptor [5] = target: T1, Androgen receptor; assay: Agonistic activity (EC50) against human androgen receptor (hAR) in co-transfected CV-1 cell; format: functional, cell-based
[6] = target: T2, Mineralocorticoid receptor (Homo sapiens, UniProt P08235); assay: (§1) Antagonistic activity against hMR in co-transfected CV-1 cell; format: functional, cell-based
T2 sequence (P08235 whole entry): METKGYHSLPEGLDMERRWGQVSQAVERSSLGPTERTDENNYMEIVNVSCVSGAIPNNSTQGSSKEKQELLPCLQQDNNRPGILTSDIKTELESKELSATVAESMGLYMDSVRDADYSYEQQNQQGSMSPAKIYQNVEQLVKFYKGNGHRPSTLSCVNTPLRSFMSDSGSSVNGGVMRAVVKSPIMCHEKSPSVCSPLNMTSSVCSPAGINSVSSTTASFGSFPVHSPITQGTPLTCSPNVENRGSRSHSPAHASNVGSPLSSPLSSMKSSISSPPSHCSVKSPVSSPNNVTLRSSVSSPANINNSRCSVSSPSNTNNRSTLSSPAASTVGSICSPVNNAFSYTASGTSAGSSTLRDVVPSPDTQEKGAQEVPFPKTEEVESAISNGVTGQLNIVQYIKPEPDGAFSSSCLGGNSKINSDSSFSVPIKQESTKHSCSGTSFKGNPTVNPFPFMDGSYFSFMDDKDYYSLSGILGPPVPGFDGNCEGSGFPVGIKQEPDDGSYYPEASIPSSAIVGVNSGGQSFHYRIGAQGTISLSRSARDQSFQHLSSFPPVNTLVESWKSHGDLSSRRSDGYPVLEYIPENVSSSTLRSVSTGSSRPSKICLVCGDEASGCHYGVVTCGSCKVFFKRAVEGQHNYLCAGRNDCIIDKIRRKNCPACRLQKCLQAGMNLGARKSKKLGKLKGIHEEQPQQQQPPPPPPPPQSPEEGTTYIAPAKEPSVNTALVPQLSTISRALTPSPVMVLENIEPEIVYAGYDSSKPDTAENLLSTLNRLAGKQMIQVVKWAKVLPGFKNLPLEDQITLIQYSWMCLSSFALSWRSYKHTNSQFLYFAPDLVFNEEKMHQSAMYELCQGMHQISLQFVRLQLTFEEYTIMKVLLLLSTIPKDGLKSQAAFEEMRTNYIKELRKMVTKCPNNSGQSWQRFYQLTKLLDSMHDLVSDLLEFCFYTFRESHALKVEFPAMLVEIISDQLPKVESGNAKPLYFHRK

Glucocorticoid receptor = target: T3, Glucocorticoid receptor (Homo sapiens, UniProt P04150); assay: (§2) Antagonistic activity against Glucocorticoid receptor in co-transfected CV-1 cell; format: functional, cell-based
T3 sequence (P04150 whole entry): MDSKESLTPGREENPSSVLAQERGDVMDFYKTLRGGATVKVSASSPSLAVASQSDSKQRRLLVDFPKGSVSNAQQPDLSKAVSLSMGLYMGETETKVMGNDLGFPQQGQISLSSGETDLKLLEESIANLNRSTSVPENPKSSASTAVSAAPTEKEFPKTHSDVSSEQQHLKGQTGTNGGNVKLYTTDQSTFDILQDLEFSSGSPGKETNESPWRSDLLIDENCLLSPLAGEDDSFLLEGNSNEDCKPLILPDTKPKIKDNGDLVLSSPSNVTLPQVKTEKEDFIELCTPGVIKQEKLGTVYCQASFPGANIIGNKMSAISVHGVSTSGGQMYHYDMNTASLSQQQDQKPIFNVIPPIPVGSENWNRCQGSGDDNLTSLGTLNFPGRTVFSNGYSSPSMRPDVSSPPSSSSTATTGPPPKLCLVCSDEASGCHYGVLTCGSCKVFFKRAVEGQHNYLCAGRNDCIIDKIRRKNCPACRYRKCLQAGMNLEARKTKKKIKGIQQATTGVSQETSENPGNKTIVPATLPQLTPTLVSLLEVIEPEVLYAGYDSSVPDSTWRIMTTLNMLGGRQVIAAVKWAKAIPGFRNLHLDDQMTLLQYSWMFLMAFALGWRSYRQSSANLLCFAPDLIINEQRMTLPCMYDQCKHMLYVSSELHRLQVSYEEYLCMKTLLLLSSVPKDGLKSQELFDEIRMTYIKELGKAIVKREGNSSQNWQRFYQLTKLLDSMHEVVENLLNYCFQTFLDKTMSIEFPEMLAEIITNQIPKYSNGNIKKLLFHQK

Progesterone receptor = target: T4, Progesterone receptor (Homo sapiens, UniProt P06401); assay: (§3) Antagonistic activity against hPR in co-transfected CV-1 cell; format: functional, cell-based
T4 sequence (P06401 whole entry): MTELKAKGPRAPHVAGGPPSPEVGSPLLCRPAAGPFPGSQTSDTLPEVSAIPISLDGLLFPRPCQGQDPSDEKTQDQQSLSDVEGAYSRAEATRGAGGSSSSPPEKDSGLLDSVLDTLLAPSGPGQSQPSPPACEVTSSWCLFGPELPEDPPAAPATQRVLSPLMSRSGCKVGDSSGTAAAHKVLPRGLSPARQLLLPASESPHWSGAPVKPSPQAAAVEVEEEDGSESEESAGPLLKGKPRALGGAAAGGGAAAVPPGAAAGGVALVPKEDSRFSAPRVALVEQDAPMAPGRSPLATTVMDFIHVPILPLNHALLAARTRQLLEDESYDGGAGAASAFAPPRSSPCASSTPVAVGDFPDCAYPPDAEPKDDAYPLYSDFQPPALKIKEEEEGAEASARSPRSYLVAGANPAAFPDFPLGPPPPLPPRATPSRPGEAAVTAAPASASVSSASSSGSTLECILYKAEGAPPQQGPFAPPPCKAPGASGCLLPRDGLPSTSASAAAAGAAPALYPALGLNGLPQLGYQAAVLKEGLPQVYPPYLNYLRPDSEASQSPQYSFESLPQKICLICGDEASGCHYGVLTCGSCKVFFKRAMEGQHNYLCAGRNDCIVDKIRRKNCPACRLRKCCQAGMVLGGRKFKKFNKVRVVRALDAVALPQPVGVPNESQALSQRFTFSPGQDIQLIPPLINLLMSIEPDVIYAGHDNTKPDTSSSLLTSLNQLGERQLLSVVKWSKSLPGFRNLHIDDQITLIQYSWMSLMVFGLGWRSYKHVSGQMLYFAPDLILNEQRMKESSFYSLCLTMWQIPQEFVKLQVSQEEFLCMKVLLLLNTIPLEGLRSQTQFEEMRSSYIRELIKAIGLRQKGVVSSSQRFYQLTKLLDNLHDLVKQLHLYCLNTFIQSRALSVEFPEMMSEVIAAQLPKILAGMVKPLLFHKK

Estrogen receptor [7] = target: T5, Estrogen receptor (Homo sapiens, UniProt Q92731+P03372); assay: (§4) Antagonistic activity against Estrogen receptor in co-transfected CV-1 cell; format: functional, cell-based
Estrogen receptor [8] = target: T5, Estrogen receptor; assay: as §4; format: functional, cell-based; remark: listed apart in the source
[9] = target: T6, Progesterone receptor (Homo sapiens) (UniProt P06401); assay: as §3; format: functional, cell-based
T6 sequence (whole entry): T4 sequence (P06401 whole entry)

Androgen receptor [10] = target: T1, Androgen receptor; assay: Antagonistic activity (IC50) against human androgen receptor (hAR) in co-transfected CV-1 cell; format: functional, cell-based
[11] = target: T7, Mineralocorticoid receptor (Homo sapiens) (UniProt P08235); assay: as §1; format: functional, cell-based
T7 sequence (whole entry): T2 sequence (P08235 whole entry)

[12] = target: T8, Glucocorticoid receptor (Homo sapiens) (UniProt P04150); assay: as §2; format: functional, cell-based
T8 sequence (whole entry): T3 sequence (P04150 whole entry)

Compound | IC50 (Androgen receptor [1]) [nM] | Ki (Androgen receptor [4]) [nM] | EC50 (Androgen receptor [5]) [nM] | IC50 (Androgen receptor [10]) | also measured
Cn1c(=O)cc(C(F)(F)F)c2cc3c(cc21)NCC3 | 56 |  |  |  | EC50 (Androgen receptor [2]): Not Active; Ki (Androgen receptor [3]): 61 nM
C[C@H]1N(C)c2cc3c(cc2C1(C)C)c(C(F)(F)F)cc(=O)n3C | 56 | 33 |  |  | EC50 (Androgen receptor [2]): Not Active
CN1c2cc3c(cc2[C@@]2(C)CCCC[C@@H]12)c(C(F)(F)F)cc(=O)n3C | 53 | 97 |  |  | EC50 (Androgen receptor [2]): Not Active
C[C@@H]1c2cc3c(C(F)(F)F)cc(=O)n(C)c3cc2N[C@@H]1C | 9180 | 10 | 15 |  | 
C[C@]12CCCC[C@H]1Nc1cc3[nH]c(=O)cc(C(F)(F)F)c3cc12 |  | 21 | 25 |  | IC50 [6]: 1900 nM; IC50 (Glucocorticoid receptor): 2100 nM; IC50 (Progesterone receptor): 730 nM
C[C@H]1Nc2cc3[nH]c(=O)cc(C(F)(F)F)c3cc2C1(C)C | 48 | 21 | 99 |  | 
C[C@@H]1c2cc3c(C(F)(F)F)cc(O)nc3cc2N[C@@H]1C |  | 6 | 5 | Not Active | IC50 [6]: 2000 nM; IC50 (Glucocorticoid receptor): 2500 nM; Efficacy (Estrogen receptor [7]): < 20%; IC50 (Estrogen receptor [8]): > 10000 nM; Efficacy [9]: 88%; Efficacy [11]: 29%; IC50 (Progesterone receptor): 1900 nM; Efficacy [12]: 35%
Oc1cc(C(F)(F)F)c2cc3c(cc2n1)N[C@@H]1CCCC[C@H]31 |  | 5 | 5 | Not Active | IC50 [6]: 2000 nM; IC50 (Glucocorticoid receptor): 5800 nM; Efficacy (Estrogen receptor [7]): < 20%; IC50 (Estrogen receptor [8]): > 10000 nM; Efficacy [9]: 91%; Efficacy [11]: 54%; IC50 (Progesterone receptor): 170 nM; Efficacy [12]: 33%
C[C@H]1CC[C@H]2Nc3cc4nc(O)cc(C(F)(F)F)c4cc3[C@H]2C1 |  | 23 | 64 | Not Active | 
Cn1c(=O)cc(C(F)(F)F)c2cc3c(cc21)N[C@@H]1CCCC[C@]31C |  | 9 | 33 | Not Active | 
C[C@@H]1CNc2cc3nc(O)cc(C(F)(F)F)c3cc21 |  | 17 | 62 | Not Active | 
CC1(C)CNc2cc3nc(O)cc(C(F)(F)F)c3cc21 | 10 | 28 | 42 |  | 
C[C@H]1CC[C@@H]2[C@H](C1)c1cc3c(C(F)(F)F)cc(=O)n(C)c3cc1N2C | 54 | 78 |  |  | EC50 (Androgen receptor [2]): Not Active
CCn1c(=O)cc(C(F)(F)F)c2cc3c(cc21)N[C@@H]1CCCC[C@H]31 | 230 | 194 |  |  | EC50 (Androgen receptor [2]): Not Active
C[C@]12CCCC[C@H]1Nc1cc3nc(O)cc(C(F)(F)F)c3cc12 |  |  |  | Not Active | Efficacy (Estrogen receptor [7]): < 20%; IC50 (Estrogen receptor [8]): > 10000 nM; Efficacy [9]: 96%; Efficacy [11]: 43%; Efficacy [12]: 43%
C[C@@H]1Cc2cc3c(C(F)(F)F)cc(O)nc3cc2N1 | 7 | 10 | 168 |  | IC50 [6]: > 10000 nM; IC50 (Glucocorticoid receptor): > 10000 nM; Efficacy (Estrogen receptor [7]): < 20%; IC50 (Estrogen receptor [8]): > 10000 nM; Efficacy [9]: 89%; Efficacy [11]: < 20%; IC50 (Progesterone receptor): 750 nM; Efficacy [12]: < 20%
Cn1c(=O)cc(C(F)(F)F)c2cc3c(cc21)N[C@@H]1CCCC[C@H]31 |  | 4 | 10 | Not Active | IC50 [6]: 2900 nM; IC50 (Glucocorticoid receptor): 3000 nM; Efficacy (Estrogen receptor [7]): < 20%; IC50 (Estrogen receptor [8]): > 10000 nM; Efficacy [9]: 99%; Efficacy [11]: 58%; IC50 (Progesterone receptor): 150 nM; Efficacy [12]: 39%
C[C@H]1Nc2cc3c(cc2C1(C)C)c(C(F)(F)F)cc(=O)n3C | 22 | 9 | 380 |  | 
C[C@@H]1Cc2cc3c(C(F)(F)F)cc(=O)n(C)c3cc2N1 |  | 9 | 20 | Not Active | 
CCCN1c2cc3c(cc2[C@H]2CCCC[C@H]21)c(C(F)(F)F)cc(=O)n3C | 27 | 63 | 324 |  | 
